Test results reported in US7381729B2, “4-(4-trans-hydroxycyclohexyl)amino-2-phenyl-7H-pyrrolo [2,3D] pyrimidine hydrogen mesylate, its polymorphic forms, and methods for making same” (Solvay Pharmaceuticals B.V., priority 2003, dated 2008).
Converted amounts (≈) assume the structure as drawn.

What was measured:
[1] = Solubility in gastrointestinal fluids; format: physicochemical
[2] = Solubility by shake flask method (OECD guideline No. 105) in purified water; conditions: 25° C.
Experimental: Solubility measurements were carried out with the shake flask method according to the OECD guideline at 25° C.

[3] = Relative stability of the polymorphic forms; format: physicochemical; conditions: form α versus form β
[4] = Stability at ambient conditions; format: physicochemical

## O[C@H]1CC[C@H](Nc2nc(-c3ccccc3)nc3[nH]ccc23)CC1 [Base, 4-(4-trans-hydroxy-cyclohexyl)amino-2-phenyl-7H-pyrrolo[2,3d]pyrimidine]
[1]
  solubility in gastrointestinal fluids (in words): low solubility
[2]
  Solubility: 5.9 ng/mL (≈ 0.0191 µM)

## CS(=O)(=O)O.OC1CCC(Nc2nc(-c3ccccc3)nc3[nH]ccc23)CC1 (stereo not drawn) [Polymorph α, 4-(4-trans-hydroxy-cyclohexyl)amino-2-phenyl-7H-pyrrolo[2,3d]pyrimidine mesylate]
[3]
  polymorphic stability (in words): metastable with respect to form β

## CS(=O)(=O)O.OC1CCC(Nc2nc(-c3ccccc3)nc3[nH]ccc23)CC1 (stereo not drawn) [Polymorph β, 4-(4-trans-hydroxy-cyclohexyl)amino-2-phenyl-7H-pyrrolo[2,3d]pyrimidine mesylate]
[3]
  polymorphic stability (in words): stable form

## CS(=O)(=O)O.OC1CCC(Nc2nc(-c3ccccc3)nc3[nH]ccc23)CC1 (stereo not drawn) [mesylate salt, 4-(4-trans-hydroxy-cyclohexyl)amino-2-phenyl-7H-pyrrolo[2,3d]-pyrimidine mesylate]
[4]
  stability at ambient conditions (in words): very stable
